We go through 8 molecules from PubChem BioAssay AID220 (DTP/NCI, 2004).

“And” between values parts separate entries of the source, which are not always exact repeats. Equal entries are not always repeated. Records with an inconclusive call do not appear.

The assay has as its system CD8F1 mice, subcutaneous mammary adenocarcinoma, T/C%. The assay can be described thus: NCI In Vivo Anticancer Drug Screen. Data for tumor model Mammary Adenocarcinoma CD8F1 (subcutaneous) in CD8F1. The following applies: higher = larger tumour. Put shortly: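 Ratio of treated to vehicle-control outcome, based on either survival or tumor size, in mice bearing transplantable tumors given the test compound.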

Where [1] appears, read: endpoint: median tumor weight (est.), dose: 25.0 mg/kg/injection, schedule: Q07DX005 (ip), vehicle: Klucel (hydroxypropylcellulose) (HPC).
The mark [2] stands for this setting: endpoint: median tumor weight (est.), dose: 50.0 mg/kg/injection, schedule: Q07DX005 (ip), vehicle: Klucel (hydroxypropylcellulose) (HPC).
Where [3] appears, read: endpoint: median tumor weight (est.), dose: 3.12 mg/kg/injection, schedule: Q07DX005 (ip), vehicle: saline.
Where [4] appears, read: endpoint: median tumor weight (est.), dose: 6.25 mg/kg/injection, schedule: Q07DX005 (ip), vehicle: saline.
Setting [5] is: endpoint: median tumor weight (est.), dose: 12.5 mg/kg/injection, schedule: Q07DX005 (ip), vehicle: saline.

Consider `CC[C@@]1(O)C(=O)OCc2c1cc1n(c2=O)Cc2cc3cc(O)ccc3nc2-1`, for which the T/C reads like this: (endpoint: median tumor weight change, dose: 1.85 mg/kg/injection, schedule: Q01DX001 (ip), vehicle: saline) 97 % of control; (endpoint: median tumor weight change, dose: 7.5 mg/kg/injection, schedule: Q01DX001 (ip), vehicle: saline) 107 % of control; (endpoint: median tumor weight change, dose: 15.0 mg/kg/injection, schedule: Q01DX001 (ip), vehicle: saline) 80 % of control; (endpoint: median tumor weight change, dose: 30.0 mg/kg/injection, schedule: Q01DX001 (ip), vehicle: saline) 28 % of control.

`S=c1nc[nH]c2nc[nH]c12`: the T/C reads like this: (endpoint: mean tumor weight (est.), dose: 135.0 mg/kg/injection, schedule: Q07DX005 (ip), vehicle: sodium bicarbonate) 42 % of control; (endpoint: mean tumor weight, dose: 15.0 mg/kg/injection, schedule: Q01DX009 (ip), vehicle: saline) 16 % of control; (endpoint: mean tumor weight, dose: 30.0 mg/kg/injection, schedule: Q01DX009 (ip), vehicle: saline) 5 % of control; (endpoint: mean tumor weight, dose: 35.0 mg/kg/injection, schedule: Q07DX007 (ip), vehicle: saline) 98 % of control; (endpoint: mean tumor weight, dose: 60.0 mg/kg/injection, schedule: Q01DX009 (ip), vehicle: saline) 14 % of control; (endpoint: mean tumor weight, dose: 67.5 mg/kg/injection, schedule: Q07DX005 (ip), vehicle: saline) 57 % of control. In addition, the T/C (endpoint: mean tumor weight, dose: 67.5 mg/kg/injection, schedule: Q07DX006 (ip), vehicle: sodium bicarbonate) was 49 % of control; the T/C (endpoint: mean tumor weight, dose: 67.5 mg/kg/injection, schedule: Q07DX007 (ip), vehicle: saline) was 81 % of control; the T/C (endpoint: mean tumor weight, dose: 135.0 mg/kg/injection, schedule: Q07DX005 (ip), vehicle: saline) is 37 % of control; the T/C (endpoint: median tumor weight (est.), dose: 4.0 mg/kg/injection, schedule: Q07DX005 (ip), vehicle: saline) was 73 % of control; the T/C (endpoint: median tumor weight (est.), dose: 6.25 mg/kg/injection, schedule: Q07DX005 (ip), vehicle: Klucel (hydroxypropylcellulose) (HPC)) was 78 % of control; the T/C (endpoint: median tumor weight (est.), dose: 8.0 mg/kg/injection, schedule: Q07DX005 (ip), vehicle: saline) is 78 % of control. The T/C is, setting by setting: (endpoint: median tumor weight (est.), dose: 16.0 mg/kg/injection, schedule: Q07DX005 (ip), vehicle: saline) 350 % of control; under setting [1], 80 % of control; (endpoint: median tumor weight (est.), dose: 32.0 mg/kg/injection, schedule: Q07DX005 (ip), vehicle: saline) 78 % of control; under setting [2], 48 % of control; (endpoint: median tumor weight (est.), dose: 64.0 mg/kg/injection, schedule: Q07DX005 (ip), vehicle: saline) 101 % of control; (endpoint: median tumor weight (est.), dose: 100.0 mg/kg/injection, schedule: Q07DX005 (ip), vehicle: Klucel (hydroxypropylcellulose) (HPC)) 17 % of control. In addition, under “endpoint: median tumor weight (est.), dose: 128.0 mg/kg/injection, schedule: Q07DX005 (ip), vehicle: saline”, the T/C was 28 % of control.

As to `C[C@]12CCC(=O)C=C1CC[C@@H]1[C@@H]2C(=O)C[C@@]2(C)[C@H]1CC[C@]2(O)C(=O)CO`, the T/C reads like this: (endpoint: median tumor weight (est.), dose: 2.0 mg/kg/injection, schedule: Q07DX005 (ip), vehicle: Klucel (hydroxypropylcellulose) (HPC)) 68 % of control; (endpoint: median tumor weight (est.), dose: 4.0 mg/kg/injection, schedule: Q07DX005 (ip), vehicle: Klucel (hydroxypropylcellulose) (HPC)) 91 % of control; (endpoint: median tumor weight (est.), dose: 8.0 mg/kg/injection, schedule: Q07DX005 (ip), vehicle: Klucel (hydroxypropylcellulose) (HPC)) 97 % of control; (endpoint: median tumor weight (est.), dose: 16.0 mg/kg/injection, schedule: Q07DX005 (ip), vehicle: Klucel (hydroxypropylcellulose) (HPC)) 71 % of control; under setting [1], 80 % of control; under setting [2], 67 % of control. The T/C was 35 % of control and 58 % of control (endpoint: median tumor weight (est.), dose: 200.0 mg/kg/injection, schedule: Q07DX005 (ip), vehicle: Klucel (hydroxypropylcellulose) (HPC)); 46 % of control and 64 % of control (endpoint: median tumor weight change, dose: 500.0 mg/kg/injection, schedule: Q01DX001 (ip), vehicle: Klucel (hydroxypropylcellulose) (HPC)); 33 % of control and 49 % of control (endpoint: median tumor weight change, dose: 1000.0 mg/kg/injection, schedule: Q01DX001 (ip), vehicle: Klucel (hydroxypropylcellulose) (HPC)); 24 % of control and 44 % of control (endpoint: median tumor weight change, dose: 2000.0 mg/kg/injection, schedule: Q01DX001 (ip), vehicle: Klucel (hydroxypropylcellulose) (HPC)); -18 % of control (endpoint: median tumor weight change, dose: 4000.0 mg/kg/injection, schedule: Q01DX001 (ip), vehicle: Klucel (hydroxypropylcellulose) (HPC)).

For `CCCCCC(O)C1C(=O)OC(C)C(O)/C=C/C=C/C=C/C=C\C=C(\C)C(O)CC(O)CC(O)CC(O)CC(O)CC(O)CC1O` (stereo not given), the T/C (endpoint: median tumor weight change, dose: 62.5 mg/kg/injection, schedule: Q01DX001 (ip), vehicle: distilled water + Tween-80) was 150 % of control.

`Nc1nc2ccc(NCc3ccc(C(=O)NC(CCC(=O)O)C(=O)O)cc3)cc2c(=O)[nH]1` (stereo not given): the T/C reads like this: (endpoint: median tumor weight change, dose: 25.0 mg/kg/injection, schedule: Q01DX001 (ip), vehicle: saline with Tween-80) 115 % of control; (endpoint: median tumor weight change, dose: 100.0 mg/kg/injection, schedule: Q01DX001 (ip), vehicle: saline with Tween-80) 68 % of control.

In the case of `OCC1OC(n2cnc3cncnc32)C(O)C1O` (stereo not given), the T/C is 114 % of control under setting [3], 59 % of control under setting [4] and 65 % of control under setting [5].

In the case of `CNc1nc(N(C)C)nc(N(C)C)n1`, the T/C under setting [3] was 89 % of control; the T/C under setting [4] is 111 % of control; the T/C under setting [5] was 75 % of control; the T/C (endpoint: median tumor weight (est.), dose: 12.5 mg/kg/injection, schedule: Q07DX005 (ip), vehicle: water) is 65 % of control; the T/C (endpoint: median tumor weight (est.), dose: 25.0 mg/kg/injection, schedule: Q07DX005 (ip), vehicle: saline) was 108 % of control; the T/C (endpoint: median tumor weight (est.), dose: 25.0 mg/kg/injection, schedule: Q07DX005 (ip), vehicle: water) is 94 % of control. In addition, the T/C is 63 % of control (endpoint: median tumor weight (est.), dose: 50.0 mg/kg/injection, schedule: Q07DX005 (ip), vehicle: saline); 13 % of control (endpoint: median tumor weight (est.), dose: 50.0 mg/kg/injection, schedule: Q07DX005 (ip), vehicle: water); 33 % of control (endpoint: median tumor weight (est.), dose: 74.0 mg/kg/injection, schedule: Q07DX005 (ip), vehicle: other); 48 % of control (endpoint: median tumor weight (est.), dose: 100.0 mg/kg/injection, schedule: Q07DX005 (ip), vehicle: saline); 28 % of control (endpoint: median tumor weight (est.), dose: 100.0 mg/kg/injection, schedule: Q07DX005 (ip), vehicle: water); 47 % of control (endpoint: median tumor weight (est.), dose: 148.0 mg/kg/injection, schedule: Q07DX005 (ip), vehicle: other). Besides, the T/C (endpoint: median tumor weight (est.), dose: 222.0 mg/kg/injection, schedule: Q07DX005 (ip), vehicle: other) is 7 % of control.

Turning to `O=S(=O)(O)O.[NH-]C1CCCCC1[NH-].[Pt+2]` (stereo not given), the T/C is, setting by setting: (endpoint: mean tumor weight, dose: 0.63 mg/kg/injection, schedule: Q07DX006 (ip), vehicle: water) 54 % of control; (endpoint: mean tumor weight, dose: 1.25 mg/kg/injection, schedule: Q07DX006 (ip), vehicle: water) 44 % of control; (endpoint: mean tumor weight, dose: 2.5 mg/kg/injection, schedule: Q07DX006 (ip), vehicle: water) 4 % of control; (endpoint: mean tumor weight, dose: 5.0 mg/kg/injection, schedule: Q07DX006 (ip), vehicle: water) 1 % of control; (endpoint: median tumor weight (est.), dose: 0.63 mg/kg/injection, schedule: Q07DX005 (ip), vehicle: dextrose) 81 % of control; (endpoint: median tumor weight (est.), dose: 0.63 mg/kg/injection, schedule: Q07DX005 (ip), vehicle: water) 74 % of control. Besides, the T/C is 41 % of control (endpoint: median tumor weight (est.), dose: 1.25 mg/kg/injection, schedule: Q07DX005 (ip), vehicle: dextrose); 55 % of control (endpoint: median tumor weight (est.), dose: 1.25 mg/kg/injection, schedule: Q07DX005 (ip), vehicle: water); 83 % of control (endpoint: median tumor weight (est.), dose: 2.5 mg/kg/injection, schedule: Q07DX005 (ip), vehicle: dextrose); 41 % of control (endpoint: median tumor weight (est.), dose: 2.5 mg/kg/injection, schedule: Q07DX005 (ip), vehicle: water); 33 % of control (endpoint: median tumor weight (est.), dose: 5.0 mg/kg/injection, schedule: Q07DX005 (ip), vehicle: dextrose); 3 % of control (endpoint: median tumor weight (est.), dose: 5.0 mg/kg/injection, schedule: Q07DX005 (ip), vehicle: water).
